The source of these data is ChEMBL document CHEMBL2074116, “Functional analysis of rat renal organic anion transporter OAT-K1: bidirectional methotrexate transport in apical membrane” (FEBS Lett, 1999).

Holding throughout (assay type): functional, cell-based
The target of data set [1] is T1, Solute carrier organic anion transporter family member 1A3 (Rattus norvegicus, UniProt P70502).
T1 sequence (P70502 whole entry): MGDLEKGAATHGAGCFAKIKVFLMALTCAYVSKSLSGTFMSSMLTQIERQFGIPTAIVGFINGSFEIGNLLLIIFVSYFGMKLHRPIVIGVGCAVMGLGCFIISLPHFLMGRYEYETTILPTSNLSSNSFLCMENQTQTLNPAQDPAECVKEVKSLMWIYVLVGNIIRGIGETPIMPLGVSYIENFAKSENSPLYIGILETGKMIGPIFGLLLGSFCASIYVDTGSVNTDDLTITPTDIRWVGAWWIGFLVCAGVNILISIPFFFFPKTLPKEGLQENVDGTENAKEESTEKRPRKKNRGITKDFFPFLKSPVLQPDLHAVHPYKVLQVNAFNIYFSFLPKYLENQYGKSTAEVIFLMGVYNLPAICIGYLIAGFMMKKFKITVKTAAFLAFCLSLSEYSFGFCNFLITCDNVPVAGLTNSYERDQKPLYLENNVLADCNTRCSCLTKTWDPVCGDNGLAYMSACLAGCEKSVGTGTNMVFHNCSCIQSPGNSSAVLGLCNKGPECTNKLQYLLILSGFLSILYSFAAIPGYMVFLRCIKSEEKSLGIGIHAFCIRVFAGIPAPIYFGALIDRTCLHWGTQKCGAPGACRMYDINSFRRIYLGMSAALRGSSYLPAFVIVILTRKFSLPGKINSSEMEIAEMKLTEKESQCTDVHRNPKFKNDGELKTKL
Briefly: TP_TRANSPORTER: inhibition of MTX uptake (MTX: 0.01 uM, PAH: 100 uM) in OAT-K1-expressing MDCK cells. The conditions noted are these: dog.

The target in data set [2] is T1, Solute carrier organic anion transporter family member 1A3. Briefly: TP_TRANSPORTER: uptake in Xenopus laevis oocytes. The conditions noted are these: oocyte.
Substrate in data set [3]: CN(Cc1cnc2nc(N)nc(N)c2n1)c1ccc(C(=O)N[C@@H](CCC(=O)O)C(=O)O)cc1
The experiment in a line: TP_TRANSPORTER: uptake in OAT-K1-expressing MDCK cells.

Turning to `Nc1ccc(C(=O)NCC(=O)O)cc1` [AMINOHIPPURIC ACID], the Activity result in data set [1] is “inhibitor [(at a rough estimate) 55 % of control]”; in data set [2] it was “is not a substrate [-]”.

B1: Solute carrier organic anion transporter family member 1A3 (Rattus norvegicus) (protein)
chain: T1 sequence (P70502 whole entry)
Take B1: the Km in data set [3] was determined as 2.1 µM.
